# Laboratory results published in article PMC10689823, “Discovery of a Drug-like, Natural Product-Inspired DCAF11 Ligand Chemotype” (Nature Communications, 2023).
# “And” between values parts separate entries of the source, which are not always exact repeats. Equal entries are not always repeated. Where two headings read alike, the source gives them in different places.
# How the values were obtained:
# [1] = biological target: BRD2 (Homo sapiens, UniProt P25440); experiment: BRD2 levels by Western blot in Hep G2 and MDA-MB-231 cells (incl. RNA interference); assay type: cell-based; design: endogenous in cells; host or cells: Hep G2; MDA-MB-231; conditions: Hep G2 cells; 30 μM 15 for 1 h, then 10 μM 9 for 4 h
# Procedure: (§1) Cells were washed with PBS and lysed in lysis buffer (50 mM Tris-HCl, pH 7.4, 150 mM NaCl, 1% Triton X-100, 1% sodium deoxycholate, 0.1% SDS) with complete protease inhibitor cocktail (Roche, 11836170001) for 30 min on ice. For Ramos cells, cell pellets were lysed in lysis buffer (50 mM Tris-HCl, pH 8, 150 mM NaCl, 1% NP-40, 0.5% sodium deoxycholate) with complete protease inhibitor cocktail. After centrifugation at 16,000 x g, the supernatant was transferred into a new tube and the protein concentration was determined by DC protein assay (BIO-RAD, 5000116). Proteins were separated by SDS-PAGE and transferred to a PVDF membrane (Thermo scientific, 0.45 μm, 88518). For PDEδ, BRD2, GAPDH, BRD4, Vinculin and BTK, the membranes were blocked with Intercept® Blocking Buffer (LI-COR Biosciences, 927-70001) at room temperature for 1 h. The primary antibodies for these proteins were diluted with Intercept® Blocking Buffer (1:500 for PDEδ, 1:3000 for Vinculin, and 1:1000 for other proteins) and incubated with the membranes overnight at 4 °C. Membranes were washed with PBS + 0.1% Tween 20 (PBS-T) five times and incubated with secondary antibodies conjugated to IRDye® Infrared Fluorescent Dyes (1:5000, LI-COR Biosciences) at room temperature for 1 h with protection from light. After washing the membrane, signals were visualized using the ChemiDoc MP Imaging System (BIO-RAD Laboratories). For detection of LC3B, BRD3, BLK, DCAF11, DDB1 RBX1, FIP200, V5- and FLAG-Tag the membranes were blocked with 5% milk in PBS-T at room temperature for 1 h. The primary antibodies for these proteins were diluted in 5% milk in PBS-T buffer (1:200 for BRD3, 1:1000 for other proteins) and incubated with the membranes overnight at 4 °C. Membranes were washed with PBS-T five times and incubated with HRP secondary antibodies (1:1500) at room temperature for 1 h. After washing the membrane, protein detection was performed using Western blotting detection reagent (Thermo Scientific, 34095) and the ChemiDoc MP Imaging System (BIO-RAD). Relative band intensities were quantified using Image Lab (BIO-RAD).
# [2] = Cell viability assay (CellTiter-Glo) in Jurkat cells; assay type: cell-based; conditions: human, Jurkat cells
# Procedure: (§2) Jurkat cells (3 × 10^3) and Hep G2 cells (3.5 × 10^3) were seeded in 96-well plates in 100 μL culture medium. Cells were treated with compounds dissolved in 50 μl medium at the indicated concentration for 72 h, at the same time, one plate of cells without compounds treatment was used for the cell count at time zero. After adding 40 μl of CellTiter-Glo® reagent (Promega, G7571) to each well for 10 min at room temperature, the luminescence was measured on a Spark® Multimode Microplate Reader (Tecan). The data was analyzed by the GraphPad Prism 9.0.
# [3] = system: Jurkat cells; experiment: as above; assay type: cell-based; conditions: for Relative cell viability (%): Fig. 4k; for Cell viability (%) relative to DMSO: individual replicates, Supplementary Fig. 7g
# Procedure: as §2
# [4] = system: Hep G2 cells; experiment: Cell viability assay (CellTiter-Glo) in Hep G2 cells; assay type: cell-based; conditions: Homo sapiens, HepG2, 72 h
# Procedure: as §2
# [5] = biological target: T1, PDEδ (Homo sapiens, UniProt O43924); experiment: PDEδ levels by Western blot in HEK293T, HAP1 and LC3B knockout HAP1 cells; assay type: cell-based; design: endogenous in cells; host or cells: HEK293T; HAP1 and LC3B-knockout HAP1
# Procedure: as §1, with “After washing the membrane, signals were visualized using the ChemiDoc MP Imaging System (BIO-RAD Laboratories). For detection of LC3B, BRD3, BLK, DCAF11, DDB1 RBX1, FIP200, V5- and FLAG-Tag the membranes were blocked with 5% milk in PBS-T at room temperature for 1 h. The primary antibodies for these proteins were diluted in 5% milk in PBS-T buffer (1:200 for BRD3, 1:1000 for other proteins) and incubated with the membranes overnight at 4 °C. Membranes were washed with PBS-T five times and incubated with HRP secondary antibodies (1:1500) at room temperature for 1 h. After washing the membrane, protein detection was performed using Western blotting detection reagent (Thermo Scientific, 34095) and the ChemiDoc MP Imaging System (BIO-RAD).” left out
# [6] = biological target: LC3B (Homo sapiens, UniProt Q9GZQ8); experiment: Thermal shift assay with LC3B; assay type: binding; conditions: 15 µM LC3B; 60 µM compound; Glo-Melt dye
# Procedure: For thermal shift analysis, 15 µM of human LC3B was dispensed into 384-well plates (Hard-Shell 384-well 480 PCR plates, BioRAD #HSR4805) in buffer (50 mM Tris/HCl pH 7.4, 100 mM NaCl, 1 mM GSH and 0.02% CHAPS) with a Certus Flex liquid dispenser (Gyger). 60 µM compounds in DMSO (n4 or DMSO (0.6%) as control were added with an Echo 520 acoustic liquid handler (Labcyte). Glo-Melt dye was added (final concentration: 1/100), plates sealed with Lightcycler 480 Sealing Foils (Roche, #04 729 757 001) and mixed by short centrifugation (1 min, 60 g and room temeprature). A Lightcycler 480 II (Roche) was used for thermal shift curves with a temperature gradient from 20 to 95 °C according to the manufacturer´s protocol. Protein melting curves were analyzed, and the difference in meting temperature (ΔTm) was calculated with LightCycler Thermal Shift Analysis software (ROCHE) and visualized by Graphpad Prism (Version 9.5.1).
# [7] = system: PDE6D mRNA; experiment: RT-qPCR of PDE6D mRNA in Jurkat cells; assay type: cell-based; conditions: for PDE6D mRNA level (relative to DMSO control group): 6 h, Supplementary Fig. 1f
# Procedure: Jurkat cells were grown in 12-well plates and treated with compounds for the indicated time. RNA was extracted using the RNeasy Plus Mini Kit (QIAGEN, 74134), and DNA was removed by DNase digestion with RNase-free DNase Set (QIAGEN, 79256). cDNA was synthesized using the QuantiTect Reverse Transcription Kit (QIAGEN, 205313). The mRNA expression level was evaluated with the QuantiFast SYBR Green PCR Kit (Qiagen, 330502), using the CFX96 Real-Time PCR Detection System (BIO-RAD Laboratories), and relative expression levels were calculated using the ΔΔCt method using GAPDH as reference[45] and analyzed in GraphPad Prism 9.0. The sequences of the primers for PDE6D were 5’-[…]-3’ (forward) and 5’-[…]-3’ (reverse). For GAPDH, the sequences were 5’-[…]-3’ (forward) and 5’-[…]-3’ (reverse). For BRD2, the sequences were 5’-[…]-3’ (forward), 5’-[…]-3’ (reverse). For BRD3, the sequences were 5’-[…]-3’ (forward), 5’-[…]-3’ (reverse). For BRD4, the sequences were 5’-[…]-3’ (forward), 5’-[…]-3’ (reverse). These primers were synthesized by Sigma-Aldrich.
# [8] = biological target: T1, PDEδ; experiment: PDEδ levels by Western blot in Dox-inducible DDB1 knockout KBM7 cells; assay type: cell-based; design: endogenous in cells; host or cells: Dox-inducible DDB1-knockout KBM7; conditions: 5 (10 μM) 8 h, Supplementary Fig. 4f
# Procedure: as §1, with “After washing the membrane, signals were visualized using the ChemiDoc MP Imaging System (BIO-RAD Laboratories). For detection of LC3B, BRD3, BLK, DCAF11, DDB1 RBX1, FIP200, V5- and FLAG-Tag the membranes were blocked with 5% milk in PBS-T at room temperature for 1 h. The primary antibodies for these proteins were diluted in 5% milk in PBS-T buffer (1:200 for BRD3, 1:1000 for other proteins) and incubated with the membranes overnight at 4 °C. Membranes were washed with PBS-T five times and incubated with HRP secondary antibodies (1:1500) at room temperature for 1 h. After washing the membrane, protein detection was performed using Western blotting detection reagent (Thermo Scientific, 34095) and the ChemiDoc MP Imaging System (BIO-RAD).” left out
# [9] = biological target: T1, PDEδ; experiment: PDEδ levels by Western blot in Jurkat cells; assay type: cell-based; design: endogenous in cells; host or cells: Jurkat; conditions: for remaining activity at 10 µM: Jurkat, 6 h, DMSO pretreatment 2 h, then 10 μM, 6h, read-out: PDEδ/Vinculin intensity (relative to DMSO control group)
# T1 sequence (O43924 whole entry): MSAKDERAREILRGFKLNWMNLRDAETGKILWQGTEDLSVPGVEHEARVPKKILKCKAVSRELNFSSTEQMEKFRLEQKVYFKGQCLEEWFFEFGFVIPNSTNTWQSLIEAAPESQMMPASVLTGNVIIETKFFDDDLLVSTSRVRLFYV
# Sequence of BRD2 (P25440 whole entry): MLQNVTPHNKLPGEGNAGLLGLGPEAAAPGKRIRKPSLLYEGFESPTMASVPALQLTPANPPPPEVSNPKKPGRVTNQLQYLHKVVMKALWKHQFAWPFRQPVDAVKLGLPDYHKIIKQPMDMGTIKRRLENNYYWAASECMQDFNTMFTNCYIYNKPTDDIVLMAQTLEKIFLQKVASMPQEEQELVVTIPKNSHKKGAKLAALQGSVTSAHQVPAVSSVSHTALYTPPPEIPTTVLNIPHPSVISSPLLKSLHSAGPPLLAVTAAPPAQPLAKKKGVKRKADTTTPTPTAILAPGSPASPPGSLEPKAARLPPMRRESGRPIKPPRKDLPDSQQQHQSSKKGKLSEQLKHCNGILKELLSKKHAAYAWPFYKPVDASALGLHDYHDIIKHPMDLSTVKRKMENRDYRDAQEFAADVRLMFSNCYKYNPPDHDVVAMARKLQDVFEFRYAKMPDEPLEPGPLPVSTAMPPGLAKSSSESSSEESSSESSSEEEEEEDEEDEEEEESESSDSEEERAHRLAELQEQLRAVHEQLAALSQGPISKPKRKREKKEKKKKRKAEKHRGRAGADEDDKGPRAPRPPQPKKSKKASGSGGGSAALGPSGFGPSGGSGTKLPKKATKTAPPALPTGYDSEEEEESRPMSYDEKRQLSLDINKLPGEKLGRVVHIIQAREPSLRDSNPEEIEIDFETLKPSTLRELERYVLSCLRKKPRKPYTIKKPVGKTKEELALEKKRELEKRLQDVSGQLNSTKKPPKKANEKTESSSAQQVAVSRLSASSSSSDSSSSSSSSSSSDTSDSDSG
smiles,measurement,setting,value
"COCCCN(C(=O)CCl)C(C(=O)NCc1ccccc1)c1ccc(Cl)c(Cl)c1 (centres unmarked) [Compound 15, reference compound]",effect of pretreatment on BRD2 degradation by 9,[1],impaired the degradation of BRD2
same,"viability at 72 h, 10 nmol/L","[2]; concentration 10 nmol/L, individual replicates, Supplementary Fig. 7g, read-out: Cell viability (%) relative to DMSO",90.9%
same,"viability at 72 h, 30 nmol/L","[2]; concentration 30 nmol/L, individual replicates, Supplementary Fig. 7g, read-out: Cell viability (%) relative to DMSO",89%
same,"viability at 72 h, 0.01 µM","[2]; 72 h, 10 nM, Fig. 4k, read-out: Relative cell viability (%)",98.2%
same,"viability at 72 h, 0.03 µM","[2]; 72 h, 30 nM, Fig. 4k, read-out: Relative cell viability (%)",95.3%
same,"viability at 72 h, 0.1 µM","[2]; 72 h, 100 nM, Fig. 4k, read-out: Relative cell viability (%)",97.5%
same,"viability at 72 h, 0.3 µM","[2]; 72 h, 300 nM, Fig. 4k, read-out: Relative cell viability (%)",89.8%
same,"viability at 72 h, 1 µM","[2]; 72 h, 1000 nM, Fig. 4k, read-out: Relative cell viability (%)",69.4%
same,GI50,"[3]; Homo sapiens, Jurkat cells, 72 h",1.7 ± 0.2 µM
same,Relative cell viability (%),"[3]; Jurkat cells, 72 h, 10 nM, 0.01 µM",107.976% and 98.062%
same,Relative cell viability (%),"[3]; Jurkat cells, 72 h, 30 nM, 0.03 µM",111.548% and 108.416%
same,Relative cell viability (%),"[3]; Jurkat cells, 72 h, 100 nM, 0.1 µM",104.746% and 97.0657%
same,Relative cell viability (%),"[3]; Jurkat cells, 72 h, 300 nM, 0.3 µM",101.886% and 95.5624%
same,Relative cell viability (%),"[3]; Jurkat cells, 72 h, 1000 nM, 1 µM",76.2485% and 79.6366%
same,Relative cell viability (%),"[3]; Jurkat cells, 72 h, 3000 nM, 3 µM",-0.04609% and 0.01061% and 0.06492%
same,Relative cell viability (%),"[3]; Jurkat cells, 72 h, 10000 nM, 10 µM",-0.2034% and -0.1473% and -0.1406%
same,Relative cell viability (%),"[3]; Jurkat cells, 72 h, 30000 nM, 30 µM",-0.2515% and -0.2135% and -0.2133%
same,Cell viability (%) relative to DMSO,[3]; concentration 10 nmol/L,93.1923% and 103.02%
same,Cell viability (%) relative to DMSO,[3]; concentration 30 nmol/L,89.995% and 103.027%
same,Cell viability (%) relative to DMSO,[3]; concentration 100 nmol/L,81.9055% and 90.259% and 101.913%
same,Cell viability (%) relative to DMSO,[3]; concentration 300 nmol/L,82.6491% and 87.803% and 104.249%
same,Cell viability (%) relative to DMSO,[3]; concentration 1000 nmol/L,80.0935% and 85.5797% and 108.086%
same,Cell viability (%) relative to DMSO,[3]; concentration 3000 nmol/L,49.5057% and 68.1876% and 85.0918%
same,Cell viability (%) relative to DMSO,[3]; concentration 10000 nmol/L,0.002496% and -0.07521% and -0.05875%
same,Cell viability (%) relative to DMSO,[3]; concentration 30000 nmol/L,-0.1172% and -0.221% and -0.2298%
same,GI50,[4],6.5 ± 1.8 µM
Cc1ccc(-n2nc3c(=O)n(CCCC(=O)NCCc4ccc(C(=O)NCCOCCOCCOCCOc5c(Br)cc(/C=C6\C(=O)Nc7ccc(Br)cc76)cc5Br)cc4)nc(C)c3c2C)cc1 [Compound 5],PDEδ degradation in HEK293T and HAP1 cell lines,[5]; 5 μM or 10 μM,degraded
same,PDEδ degradation in LC3B knockout HAP1 cells,[5]; LC3B knockout HAP1 cells,induced PDEδ degradation
same,change of melting temperature of LC3B (ΔTm),[6],did not change the thermal stability
same,PDE6D mRNA level (relative to DMSO control group),[7]; 3 μM,141.721 and 114.564 and 90.7441
same,PDE6D mRNA level (relative to DMSO control group),[7]; 10 μM,145.389 and 133.515 and 106.183
same,PDEδ mRNA levels (in words),[7]; 6 h treatment,no reduction in mRNA levels
same,PDEδ protein level (relative to DMSO control group),[8]; Dox-inducible DDB1 knockout KBM7 cells pretreated with 0.5 ug/mL Dox for 3 days,abolished
same,PDEδ protein level (relative to DMSO control group),"[8]; Dox-inducible DDB1 knockout KBM7 cells, no Dox (DMSO)",44.238 and 44.9587 and 52.5197 and 56.1328
same,PDEδ degradation,"[9]; 10 µM, 18 h incubation",ca. 75%
same,remaining activity at 10 µM,[9]; Fig. 1g,43.9%
same,remaining activity at 10 µM,[9]; Fig. 1d,44.2%
same,hook effect in PDEδ degradation,[9]; up to 10 µM concentration,no hook effect
